These compounds were tested against recombinant human SYK (GST-hSYK fusion protein) (Homo sapiens, UniProt P43405) (assay: biochemical). Settings: RHSYK Activity, Table 54A.
From the text: Homogeneous Time-Resolved Fluorescence (HTRF) Assay for the Recombinant Human SYK Enzyme:

| IC50 [nM] | Compound |
| --- | --- |
| < 100 | Cc1cc(Nc2nccc(C(F)(F)F)n2)cc(-c2cnc(C3(O)CCN(S(=O)(=O)C(C)C)CC3)s2)c1 [Example 54A-1] |
| < 100 | Cc1cc(Nc2nccc(C(F)(F)F)n2)cc(-c2cnc(C3(O)CCN(S(=O)(=O)C(F)(F)F)CC3)s2)c1 [Example 54A-2] |
| < 100 | Cc1cc(Nc2nccc(C(F)(F)F)n2)cc(-c2cnc(C3(O)CCN(S(=O)(=O)c4cn(C)cn4)CC3)s2)c1 [Example 54A-3] |

Same assay, conditions: rhSYK Activity, Table 33-A

| IC50 [nM] | Compound |
| --- | --- |
| < 100 | CCOC(=O)[C@H]1CC[C@](O)(c2ncc(-c3cccc(Nc4nccc(C(F)(F)F)n4)c3)s2)CC1 [Example 33A-25] |
| 100 to 1000 | CCOC(=O)[C@H]1CC[C@@](O)(c2ncc(-c3cccc(Nc4nccc(C(F)(F)F)n4)c3)s2)CC1 [Example 33A-26] |
| 100 to 1000 | Cc1cc(Nc2nccc(C(C)C)n2)cc(-c2cnc([C@]3(O)CC[C@@H](C(=O)OC(C)(C)C)CC3)s2)c1 [Example 33A-29] |
| < 100 | Cc1cc(Nc2nccc(C)n2)cc(-c2cnc([C@]3(O)CC[C@@H](C(=O)O)CC3)s2)c1 [Example 33A-30] |
| < 100 | Cc1cc(Nc2nccc(C)n2)cc(-c2cnc([C@]3(O)CC[C@H](C(=O)O)CC3)s2)c1 [Example 33A-31] |
| < 100 | Cc1cc(Nc2nccc(C)n2)cc(-c2cnc(C3(O)CCC(CC(=O)O)CC3)s2)c1 (centres unmarked) [Example 33A-32] |
| 100 to 1000 | Cc1cc(Nc2nccc(OC(C)C)n2)cc(-c2cnc([C@]3(O)CC[C@@H](C(=O)OC(C)(C)C)CC3)s2)c1 [Example 33A-34] |
| < 100 | COc1ccnc(Nc2cc(C)cc(-c3cnc(C4(O)CCC(C(=O)O)CC4)s3)c2)n1 (centres unmarked) [Example 33A-35] |
| < 100 | COc1ccnc(Nc2cc(C)cc(-c3cnc([C@]4(O)CC[C@](C)(C(=O)O)CC4)s3)c2)n1 [Example 33A-38] |
| < 100 | COC(=O)C1CCC(O)(c2ncc(-c3cc(C)cc(Nc4ncc(F)c(C5CC5)n4)c3)s2)CC1(C)C (centres unmarked) [Example 33A-39] |
| < 100 | Cc1cc(Nc2ncc(F)c(C3CC3)n2)cc(-c2cnc(C3(O)CCC(C(=O)O)C(C)(C)C3)s2)c1 (centres unmarked) [Example 33A-40] |
| 100 to 1000 | Cc1cc(Nc2ncc(F)cn2)cc(-c2cnc(C3(O)CCC(C(=O)O)C(C)(C)C3)s2)c1 (centres unmarked) [Example 33A-45] |
| < 100 | CC(C)(O)c1cc(Nc2nccc(C(F)(F)F)n2)cc(-c2cnc(C3(O)CCC(C(=O)O)C(C)(C)C3)s2)c1 (centres unmarked) [Example 33A-48] |
| < 100 | COC(=O)C1CCC(O)(c2ncc(-c3cc(COC(C)=O)cc(Nc4nccc(C(F)(F)F)n4)c3)s2)CC1(C)C (centres unmarked) [Example 33A-49] |
| 100 to 1000 | COC(=O)C1CCC(O)(c2ncc(-c3cc(Nc4nccc(C(F)(F)F)n4)cc(C(F)F)c3)s2)CC1(C)C (centres unmarked) [Example 33A-55] |
| < 100 | CC1(C)CC(O)(c2ncc(-c3cc(Nc4nccc(C(F)(F)F)n4)cc(C(F)F)c3)s2)CCC1C(=O)O (centres unmarked) [Example 33A-56] |
| < 100 | COC(=O)C1CCC(O)(c2ncc(-c3cc(Nc4nccc(C(F)(F)F)n4)cc(C4CC4)c3)s2)CC1(C)C (centres unmarked) [Example 33A-61] |
| 100 to 1000 | COC(=O)C1CCC(O)(c2ncc(-c3cccc(Nc4nccc(C(F)(F)F)n4)c3)s2)CC1(C)C (centres unmarked) [Example 33A-65] |
| < 100 | COC(=O)C1CCC(O)(c2ncc(-c3cc(C)cc(Nc4nccc(C)n4)c3)s2)CC1(C)C (centres unmarked) [Example 33A-69] |
| < 100 | COC(=O)C1CCC(O)(c2ncc(-c3cc(C)cc(Nc4nccc(C5CC5)n4)c3)s2)CC1(C)C (centres unmarked) [Example 33A-70] |
| < 100 | Cc1cc(Nc2nccc(C3CC3)n2)cc(-c2cnc(C3(O)CCC(C(=O)O)C(C)(C)C3)s2)c1 (centres unmarked) [Example 33A-71] |
| < 100 | Cc1cc(Nc2nccc(C(F)(F)F)n2)cc(-c2cnc(C3(O)CCC(C(=O)O)C(C)(C)C3C)s2)c1 (centres unmarked) [Example 33A-75] |

Same assay, conditions: rhSYK Activity, Table 33B

| IC50 [nM] | Compound |
| --- | --- |
| < 100 | Cc1cc(Nc2nccc(C(F)(F)F)n2)cc(-c2cnc(C3(O)CC(C(=O)O)C3)s2)c1 (centres unmarked) [Example 33B-1] |
| < 100 | Cc1cc(Nc2nccc(C(F)(F)F)n2)cc(-c2cnc(C3(O)CCCC(C(=O)O)C(C)(C)C3)s2)c1 (centres unmarked) [Example 33B-11] |
| < 100 | Cc1cc(Nc2nccc(C)n2)cc(-c2cnc(C3(O)CCC(C(=O)O)C(C(C)C)C3)s2)c1 (centres unmarked) [Example 33B-35] |
| < 100 | Cc1cc(Nc2nccc(C)n2)cc(-c2cnc(C3(O)CCC(C(=O)O)C(c4ccccc4)C3)s2)c1 (centres unmarked) [Example 33B-37] |

Same assay, conditions: rhSYK Activity, Table 33C

| IC50 [nM] | Compound |
| --- | --- |
| < 100 | Cc1cc(Nc2nccc(C(F)(F)F)n2)cc(-c2cnc(C3(O)CC4(CC(C(=O)O)C4)C3)s2)c1 (centres unmarked) [Example 33C-1] |
| < 100 | Cc1cc(Nc2nccc(C(F)(F)F)n2)cc(-c2cnc(C3(O)CC4CCC(C3)C4C(=O)O)s2)c1 (centres unmarked) [Example 33C-2] |
| < 100 | Cc1cc(Nc2nccc(C(F)(F)F)n2)cc(-c2cnc(C3(O)C4CCCC3CC(C(=O)O)C4)s2)c1 (centres unmarked) [Example 33C-3] |
| < 100 | Cc1cc(Nc2nccc(C(F)(F)F)n2)cc(-c2cnc(C3(O)CC[C@H]4C(C(=O)O)[C@H]43)s2)c1 (some centres unmarked) [Example 33C-6] |
| < 100 | Cc1cc(Nc2nccc(C(F)(F)F)n2)cc(-c2cnc(C3(O)C[C@@H]4C(C(=O)O)[C@@H]4C3)s2)c1 (some centres unmarked) [Example 33C-9] |
| < 100 | CCOC(=O)C1[C@H]2CC(O)(c3ncc(-c4cc(C)cc(Nc5nccc(C(F)(F)F)n5)c4)s3)C[C@@H]12 (some centres unmarked) [Example 33C-11] |
| < 100 | Cc1cc(Nc2nccc(C(F)(F)F)n2)cc(-c2cnc(C3(O)CNC3)s2)c1 [Example 33C-13] |
| < 100 | Cc1cc(Nc2nccc(C(F)(F)F)n2)cc(-c2cnc(C3(O)CCN(c4ncccc4C(=O)O)CC3)s2)c1 [Example 33C-15] |
| 100 to 1000 | CCOC(=O)c1cccnc1N1CCC(O)(c2ncc(-c3cc(C)cc(Nc4nccc(C(F)(F)F)n4)c3)s2)CC1 [Example 33C-16] |
| < 100 | Cc1cc(Nc2nccc(C)n2)cc(-c2cnc(C3(O)CCC4(CC3)OCCO4)s2)c1 [Example 33C-17] |
| < 100 | Cc1cc(Nc2nccc(C)n2)cc(-c2cnc(C3(O)CC4CCC3CC4C(=O)O)s2)c1 (centres unmarked) [Example 33C-18] |

Same assay, conditions: rhSYK Activity, Table 33D

| IC50 [nM] | Compound |
| --- | --- |
| < 100 | Cc1cc(Nc2nccc(C(F)(F)F)n2)cc(-c2cnc(C(C)(O)CCC(C)(C)C(=O)O)s2)c1 (centres unmarked) [Example 33D-1] |
| < 100 | COC(=O)C(C)(C)CCC(C)(O)c1ncc(-c2cc(C)cc(Nc3nccc(C(F)(F)F)n3)c2)s1 (centres unmarked) [Example 33D-4] |
| < 100 | Cc1cc(Nc2nccc(C(F)(F)F)n2)cc(-c2cnc(C(C)(O)COC(C)(C)C(=O)O)s2)c1 (centres unmarked) [Example 33D-7] |
| < 100 | COC(=O)C(C)(C)OCC(C)(O)c1ncc(-c2cc(C)cc(Nc3nccc(C(F)(F)F)n3)c2)s1 (centres unmarked) [Example 33D-8] |
| < 100 | Cc1cc(Nc2nccc(C(F)(F)F)n2)cc(-c2cnc(C(C)(O)CC(C)(C)C(=O)O)s2)c1 (centres unmarked) [Example 33D-9] |
| < 100 | Cc1cc(Nc2nccc(C(F)(F)F)n2)cc(-c2cnc(C(C)(O)CCC(=O)O)s2)c1 (centres unmarked) [Example 33D-10] |
| < 100 | Cc1cc(Nc2nccc(C(F)(F)F)n2)cc(-c2cnc(C(C)(O)c3ccccc3OCC(=O)O)s2)c1 (centres unmarked) [Example 33D-11] |
| < 100 | Cc1cc(Nc2nccc(C(F)(F)F)n2)cc(-c2cnc(C(C)(O)c3ccc(OCC(=O)O)cc3)s2)c1 (centres unmarked) [Example 33D-12] |
| < 100 | Cc1cc(Nc2nccc(C(F)(F)F)n2)cc(-c2cnc(C(C)(O)c3ccc(OC(C)C(=O)O)cc3)s2)c1 (centres unmarked) [Example 33D-13] |
| < 100 | COC(=O)c1ccc(C(C)(O)c2ncc(-c3cc(C)cc(Nc4nccc(C(F)(F)F)n4)c3)s2)cc1 (centres unmarked) [Example 33D-17] |
| < 100 | Cc1cc(Nc2nccc(C(F)(F)F)n2)cc(-c2cnc(C(C)(O)Cc3ccc(C(=O)O)cc3)s2)c1 (centres unmarked) [Example 33D-18] |
| < 100 | Cc1cc(Nc2nccc(C(F)(F)F)n2)cc(-c2cnc(C(C)(O)c3c(C)nn(CCC(=O)O)c3C)s2)c1 (centres unmarked) [Example 33D-19] |
| < 100 | Cc1cc(Nc2nccc(C(F)(F)F)n2)cc(-c2cnc(C(C)(O)c3ccc(C(=O)O)s3)s2)c1 (centres unmarked) [Example 33D-20] |
| < 100 | Cc1cc(Nc2nccc(C(F)(F)F)n2)cc(-c2cnc(C(O)C(C)(C)N3CCC(C(=O)O)CC3)s2)c1 (centres unmarked) [Example 33D-23] |
| < 100 | Cc1cc(Nc2nccc(C(F)(F)F)n2)cc(-c2cnc(C(O)(c3ccc(/C=C/C(=O)O)cc3)C3CC3)s2)c1 (centres unmarked) [Example 33D-24] |
| < 100 | Cc1cc(Nc2nccc(C(F)(F)F)n2)cc(-c2cnc(C(O)(CCCC(=O)O)c3ccncc3)s2)c1 (centres unmarked) [Example 33D-25] |

Same assay, conditions: rhSYK Activity, Table 36A

| IC50 [nM] | Compound |
| --- | --- |
| 100 to 1000 | CCOC(=O)C1CC=C(c2ncc(-c3cccc(Nc4nccc(C(F)(F)F)n4)c3)s2)CC1 (centres unmarked) [Example 36A-1] |
| < 100 | Cc1cc(Nc2nccc(C(F)(F)F)n2)cc(-c2cnc(C3=CCC(C(=O)O)CC3)s2)c1 (centres unmarked) [Example 36A-3] |
| < 100 | Cc1cc(Nc2nccc(C(F)(F)F)n2)cc(-c2cnc(C3=CC(=O)CC3)s2)c1 [Example 36A-6] |
| < 100 | Cc1cc(Nc2nccc(C(F)(F)F)n2)cc(-c2cnc(C3=CC(=O)CCC3)s2)c1 [Example 36A-7] |
| < 100 | Cc1cc(Nc2nccc(C(F)(F)F)n2)cc(-c2cnc(C3=CC(=O)CCCC3)s2)c1 [Example 36A-9] |
| 100 to 1000 | COC(=O)C1CCC(c2ncc(-c3cc(C)cc(Nc4nccc(C(F)(F)F)n4)c3)s2)=CC1(C)C (centres unmarked) [Example 36A-11] |
| 100 to 1000 | COC(=O)C1CC=C(c2ncc(-c3cc(C)cc(Nc4nccc(C(F)(F)F)n4)c3)s2)CC1(C)C (centres unmarked) [Example 36A-13] |

Same assay, conditions: rhSYK Activity, Table 36B

| IC50 [nM] | Compound |
| --- | --- |
| < 100 | Cc1cc(Nc2nccc(C(F)(F)F)n2)cc(-c2cnc(C3CCNC(=O)C3)s2)c1 (centres unmarked) [Example 36B-1] |
| < 100 | Cc1cc(Nc2nccc(C(F)(F)F)n2)cc(-c2cnc(C3=CCNC(=O)CC3)s2)c1 [Example 36B-2] |
| < 100 | Cc1cc(Nc2nccc(C(F)(F)F)n2)cc(-c2cnc(C3CCCNC(=O)C3)s2)c1 (centres unmarked) [Example 36B-3] |
| < 100 | Cc1cc(Nc2nccc(C(F)(F)F)n2)cc(-c2cnc(C3CCNC(=O)CC3)s2)c1 (centres unmarked) [Example 36B-4] |

Same assay, conditions: rhSYK Activity, table after Example 43

| IC50 [nM] | Compound |
| --- | --- |
| < 100 | [2H]C([2H])([2H])c1cc(Nc2nccc(C(F)(F)F)n2)cc(-c2cnc([C@]3(O)CC[C@H](C(=O)O)CC3)s2)c1 [Example 43-1] |
